Several values for one entry are separate records, joined by “and”; a condition that tells them apart may be missing. Identical values can stand only once. Like-named read-outs stand apart in the source and are kept apart here.
Columns and labels:
GSK3B = biological target: T1, GSK3B (Homo sapiens, UniProt P49841); test: KINOMEscan; type: binding; conditions: 10000 nM; read-out: Percent Control
T1 construct: purchased DiscoverX KINOMEscan scanEDGE; Eurofins Cerep SafetyScreen87
Experimental: (§1) The possibility of KDS12025 on kinase off-target, the KINOMEscan panel of scanEDGE assay was conducted in DiscoverX (CA, USA) using a site-directed competition binding with the test compounds. The assay results are given in Supplementary Table 4 and experimental information is available on the DiscoverX web page (www.discoverx.com). Moreover, the Delta SafetyScreen87 panel assay was conducted in Eurofins Discovery (Cerep, France). The assay results are given in Supplementary Table 5 and experimental information is available on the DiscoverX web page (https://www.eurofinsdiscoveryservices.com).

ROCK2 = biological target: T2, ROCK2 (Homo sapiens, UniProt O75116); test: KINOMEscan; type: binding; conditions: 10000 nM; read-out: Percent Control
T2 construct: purchased DiscoverX KINOMEscan scanEDGE; Eurofins Cerep SafetyScreen87
Experimental: as §1

RET = biological target: T3, RET (Homo sapiens, UniProt P07949); test: KINOMEscan; type: binding; conditions: 10000 nM; read-out: Percent Control
T3 construct: purchased DiscoverX KINOMEscan scanEDGE; Eurofins Cerep SafetyScreen87
Experimental: as §1

IKK-alpha = biological target: T4, IKK-alpha (Homo sapiens, UniProt O15111); test: KINOMEscan; type: binding; conditions: 10000 nM; read-out: Percent Control
T4 construct: purchased DiscoverX KINOMEscan scanEDGE; Eurofins Cerep SafetyScreen87
Experimental: as §1

CDK3 = biological target: T5, CDK3 (Homo sapiens, UniProt Q00526); test: KINOMEscan; type: binding; conditions: 10000 nM; read-out: Percent Control
T5 construct: purchased DiscoverX KINOMEscan scanEDGE; Eurofins Cerep SafetyScreen87
Experimental: as §1

VEGFR2 = biological target: T6, VEGFR2 (Homo sapiens, UniProt P35968); test: KINOMEscan; type: binding; conditions: 10000 nM; read-out: Percent Control
T6 construct: purchased DiscoverX KINOMEscan scanEDGE; Eurofins Cerep SafetyScreen87
Experimental: as §1

SRC = biological target: T7, SRC (Homo sapiens, UniProt P12931); test: KINOMEscan; type: binding; conditions: 10000 nM; read-out: Percent Control
T7 construct: purchased DiscoverX KINOMEscan scanEDGE; Eurofins Cerep SafetyScreen87
Experimental: as §1

p38-alpha = biological target: T8, p38-alpha (Homo sapiens, UniProt Q16539); test: KINOMEscan; type: binding; conditions: 10000 nM; read-out: Percent Control
T8 construct: purchased DiscoverX KINOMEscan scanEDGE; Eurofins Cerep SafetyScreen87
Experimental: as §1

SRPK3 = biological target: T9, SRPK3 (Homo sapiens, UniProt Q9UPE1); test: KINOMEscan; type: binding; conditions: 10000 nM; read-out: Percent Control
T9 construct: purchased DiscoverX KINOMEscan scanEDGE; Eurofins Cerep SafetyScreen87
Experimental: as §1

PLK1 = biological target: T10, PLK1 (Homo sapiens, UniProt P53350); test: KINOMEscan; type: binding; conditions: 10000 nM; read-out: Percent Control
T10 construct: purchased DiscoverX KINOMEscan scanEDGE; Eurofins Cerep SafetyScreen87
Experimental: as §1

DYRK1B = biological target: T11, DYRK1B (Homo sapiens, UniProt Q9Y463); test: KINOMEscan; type: binding; conditions: 10000 nM; read-out: Percent Control
T11 construct: purchased DiscoverX KINOMEscan scanEDGE; Eurofins Cerep SafetyScreen87
Experimental: as §1

PIK3CG = biological target: T12, PIK3CG (Homo sapiens, UniProt P48736); test: KINOMEscan; type: binding; conditions: 10000 nM; read-out: Percent Control
T12 construct: purchased DiscoverX KINOMEscan scanEDGE; Eurofins Cerep SafetyScreen87
Experimental: as §1

CDK9 = biological target: T13, CDK9 (Homo sapiens, UniProt P50750); test: KINOMEscan; type: binding; conditions: 10000 nM; read-out: Percent Control
T13 construct: purchased DiscoverX KINOMEscan scanEDGE; Eurofins Cerep SafetyScreen87
Experimental: as §1

SNARK = biological target: T14, SNARK (Homo sapiens, UniProt Q9H093); test: KINOMEscan; type: binding; conditions: 10000 nM; read-out: Percent Control
T14 construct: purchased DiscoverX KINOMEscan scanEDGE; Eurofins Cerep SafetyScreen87
Experimental: as §1

INSR = biological target: T15, INSR (Homo sapiens, UniProt P06213); test: KINOMEscan; type: binding; conditions: 10000 nM; read-out: Percent Control
T15 construct: purchased DiscoverX KINOMEscan scanEDGE; Eurofins Cerep SafetyScreen87
Experimental: as §1

ACVR1B = biological target: T16, ACVR1B (Homo sapiens, UniProt P36896); test: KINOMEscan; type: binding; conditions: 10000 nM; read-out: Percent Control
T16 construct: purchased DiscoverX KINOMEscan scanEDGE; Eurofins Cerep SafetyScreen87
Experimental: as §1

RIOK2 = biological target: T17, RIOK2 (Homo sapiens, UniProt Q9BVS4); test: KINOMEscan; type: binding; conditions: 10000 nM; read-out: Percent Control
T17 construct: purchased DiscoverX KINOMEscan scanEDGE; Eurofins Cerep SafetyScreen87
Experimental: as §1

PCTK1 = biological target: T18, PCTK1 (Homo sapiens, UniProt Q00536); test: KINOMEscan; type: binding; conditions: 10000 nM; read-out: Percent Control
T18 construct: purchased DiscoverX KINOMEscan scanEDGE; Eurofins Cerep SafetyScreen87
Experimental: as §1

EPHA2 = biological target: T19, EPHA2 (Homo sapiens, UniProt P29317); test: KINOMEscan; type: binding; conditions: 10000 nM; read-out: Percent Control
T19 construct: purchased DiscoverX KINOMEscan scanEDGE; Eurofins Cerep SafetyScreen87
Experimental: as §1

PLK4 = biological target: T20, PLK4 (Homo sapiens, UniProt O00444); test: KINOMEscan; type: binding; conditions: 10000 nM; read-out: Percent Control
T20 construct: purchased DiscoverX KINOMEscan scanEDGE; Eurofins Cerep SafetyScreen87
Experimental: as §1

IKK-beta = biological target: T21, IKK-beta (Homo sapiens, UniProt O14920); test: KINOMEscan; type: binding; conditions: 10000 nM; read-out: Percent Control
T21 construct: purchased DiscoverX KINOMEscan scanEDGE; Eurofins Cerep SafetyScreen87
Experimental: as §1

PRKCE = biological target: T22, PRKCE (Homo sapiens, UniProt Q02156); test: KINOMEscan; type: binding; conditions: 10000 nM; read-out: Percent Control
T22 construct: purchased DiscoverX KINOMEscan scanEDGE; Eurofins Cerep SafetyScreen87
Experimental: as §1

[1] = biological target: T23, CB2 (h) (agonist radioligand) (Homo sapiens, UniProt P34972); test: SafetyScreen87 panel; conditions: 1.0E-06 M, read-out: % Inhibition of Control Specific Binding (1st, 2nd, Mean)
T23 construct: purchased DiscoverX KINOMEscan scanEDGE; Eurofins Cerep SafetyScreen87
Experimental: as §1

[2] = biological target: T24, M2 (h) (antagonist radioligand) (Homo sapiens, UniProt P08172); test: SafetyScreen87 panel; conditions: 1.0E-06 M; mean; read-out: % Inhibition of Control Specific Binding (1st, 2nd, Mean)
T24 construct: purchased DiscoverX KINOMEscan scanEDGE; Eurofins Cerep SafetyScreen87
Experimental: as §1

[3] = biological target: T25, Y1 (h) (agonist radioligand) (Homo sapiens, UniProt P25929); test: SafetyScreen87 panel; conditions: read-out: % Inhibition of Control Specific Binding (1st, 2nd, Mean); 1.0E-06 M
T25 construct: purchased DiscoverX KINOMEscan scanEDGE; Eurofins Cerep SafetyScreen87
Experimental: as §1

[4] = biological target: T26, M1 (h) (antagonist radioligand) (Homo sapiens, UniProt P11229); test: SafetyScreen87 panel; conditions: 1.0E-06 M; mean; read-out: % Inhibition of Control Specific Binding (1st, 2nd, Mean)
T26 construct: purchased DiscoverX KINOMEscan scanEDGE; Eurofins Cerep SafetyScreen87
Experimental: as §1

[5] = system: GABA transporter (antagonist radioligand); test: SafetyScreen87 panel; conditions: 1.0E-06 M, read-out: % Inhibition of Control Specific Binding (1st, 2nd, Mean)
Experimental: as §1

[6] = biological target: T27, CysLT1 (LTD4) (h) (agonist radioligand) (Homo sapiens, UniProt Q9Y271); test: SafetyScreen87 panel; conditions: read-out: % Inhibition of Control Specific Binding (1st, 2nd, Mean); 1.0E-06 M
T27 construct: purchased DiscoverX KINOMEscan scanEDGE; Eurofins Cerep SafetyScreen87
Experimental: as §1

[7] = biological target: T28, A2A (h) (agonist radioligand) (Homo sapiens, UniProt P29274); test: SafetyScreen87 panel; conditions: 1.0E-06 M, read-out: % Inhibition of Control Specific Binding (1st, 2nd, Mean)
T28 construct: purchased DiscoverX KINOMEscan scanEDGE; Eurofins Cerep SafetyScreen87
Experimental: as §1

[8] = biological target: T29, ETA (h) (agonist radioligand) (Homo sapiens, UniProt P25101); test: SafetyScreen87 panel
T29 construct: purchased DiscoverX KINOMEscan scanEDGE; Eurofins Cerep SafetyScreen87
Experimental: as §1

[9] = biological target: T30, CCK1 (CCKA) (h) (agonist radioligand) (Homo sapiens, UniProt P32238); test: SafetyScreen87 panel; conditions: 1.0E-06 M; read-out: % Inhibition of Control Specific Binding (1st, 2nd, Mean)
T30 construct: purchased DiscoverX KINOMEscan scanEDGE; Eurofins Cerep SafetyScreen87
Experimental: as §1

[10] = biological target: T31, alpha 1D (h) (antagonist radioligand) (Homo sapiens, UniProt P25100); test: SafetyScreen87 panel; conditions: 1.0E-06 M, read-out: % Inhibition of Control Specific Binding (1st, 2nd, Mean)
T31 construct: purchased DiscoverX KINOMEscan scanEDGE; Eurofins Cerep SafetyScreen87
Experimental: as §1

[11] = biological target: T32, PR (h) (agonist radioligand) (Homo sapiens, UniProt P06401); test: SafetyScreen87 panel; conditions: read-out: % Inhibition of Control Specific Binding (1st, 2nd, Mean); 1.0E-06 M
T32 construct: purchased DiscoverX KINOMEscan scanEDGE; Eurofins Cerep SafetyScreen87
Experimental: as §1

[12] = biological target: T33, CB1 (h) (agonist radioligand) (Homo sapiens, UniProt P21554); test: SafetyScreen87 panel; conditions: 1.0E-06 M, read-out: % Inhibition of Control Specific Binding (1st, 2nd, Mean)
T33 construct: purchased DiscoverX KINOMEscan scanEDGE; Eurofins Cerep SafetyScreen87
Experimental: as §1

[13] = biological target: T34, alpha 2A (h) (antagonist radioligand) (Homo sapiens, UniProt P08913); test: SafetyScreen87 panel; conditions: 1.0E-06 M, read-out: % Inhibition of Control Specific Binding (1st, 2nd, Mean)
T34 construct: purchased DiscoverX KINOMEscan scanEDGE; Eurofins Cerep SafetyScreen87
Experimental: as §1

[14] = biological target: T35, 5-HT3 (h) (antagonist radioligand) (Homo sapiens, UniProt P46098); test: SafetyScreen87 panel; conditions: 1.0E-06 M; read-out: % Inhibition of Control Specific Binding (1st, 2nd, Mean)
T35 construct: purchased DiscoverX KINOMEscan scanEDGE; Eurofins Cerep SafetyScreen87
Experimental: as §1

T31 sequence (P25100 whole entry): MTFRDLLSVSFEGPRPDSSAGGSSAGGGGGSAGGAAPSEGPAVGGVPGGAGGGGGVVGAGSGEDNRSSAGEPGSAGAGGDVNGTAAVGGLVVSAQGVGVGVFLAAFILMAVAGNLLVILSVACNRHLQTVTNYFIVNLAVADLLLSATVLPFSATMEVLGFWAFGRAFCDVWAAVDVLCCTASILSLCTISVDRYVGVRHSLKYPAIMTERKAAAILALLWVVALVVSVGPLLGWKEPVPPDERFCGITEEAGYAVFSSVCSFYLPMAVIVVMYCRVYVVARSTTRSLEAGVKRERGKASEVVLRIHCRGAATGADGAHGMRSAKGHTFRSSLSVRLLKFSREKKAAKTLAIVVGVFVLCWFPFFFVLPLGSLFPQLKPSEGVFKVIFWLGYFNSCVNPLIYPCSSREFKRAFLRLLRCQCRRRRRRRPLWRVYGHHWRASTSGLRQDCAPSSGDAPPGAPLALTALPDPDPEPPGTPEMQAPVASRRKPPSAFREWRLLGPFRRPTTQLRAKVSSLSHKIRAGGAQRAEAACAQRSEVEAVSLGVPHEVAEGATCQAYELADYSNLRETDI
T33 sequence (P21554 whole entry): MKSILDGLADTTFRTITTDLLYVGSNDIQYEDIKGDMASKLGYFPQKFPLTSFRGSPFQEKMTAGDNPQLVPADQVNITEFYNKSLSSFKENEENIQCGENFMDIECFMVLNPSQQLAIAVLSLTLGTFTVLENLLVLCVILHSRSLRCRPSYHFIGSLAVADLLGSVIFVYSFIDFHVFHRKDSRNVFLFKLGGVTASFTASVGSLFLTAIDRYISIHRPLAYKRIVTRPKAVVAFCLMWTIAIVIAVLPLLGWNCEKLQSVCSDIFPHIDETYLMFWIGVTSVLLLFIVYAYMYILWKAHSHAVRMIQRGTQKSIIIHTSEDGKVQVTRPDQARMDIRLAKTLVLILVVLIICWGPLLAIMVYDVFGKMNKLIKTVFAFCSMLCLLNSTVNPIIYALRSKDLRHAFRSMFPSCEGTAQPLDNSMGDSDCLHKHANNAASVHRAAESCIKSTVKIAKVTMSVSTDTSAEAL
T23 sequence (P34972 whole entry): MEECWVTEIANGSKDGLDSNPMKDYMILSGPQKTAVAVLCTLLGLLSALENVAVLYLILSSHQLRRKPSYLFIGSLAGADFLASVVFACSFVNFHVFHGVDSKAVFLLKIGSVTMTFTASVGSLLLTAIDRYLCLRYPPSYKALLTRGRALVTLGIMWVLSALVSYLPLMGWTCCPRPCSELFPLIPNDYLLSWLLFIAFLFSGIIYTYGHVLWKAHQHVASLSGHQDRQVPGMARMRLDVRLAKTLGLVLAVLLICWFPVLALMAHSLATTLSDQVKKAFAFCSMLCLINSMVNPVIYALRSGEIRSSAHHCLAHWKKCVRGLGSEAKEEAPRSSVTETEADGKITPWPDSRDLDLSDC
T34 sequence (P08913 whole entry): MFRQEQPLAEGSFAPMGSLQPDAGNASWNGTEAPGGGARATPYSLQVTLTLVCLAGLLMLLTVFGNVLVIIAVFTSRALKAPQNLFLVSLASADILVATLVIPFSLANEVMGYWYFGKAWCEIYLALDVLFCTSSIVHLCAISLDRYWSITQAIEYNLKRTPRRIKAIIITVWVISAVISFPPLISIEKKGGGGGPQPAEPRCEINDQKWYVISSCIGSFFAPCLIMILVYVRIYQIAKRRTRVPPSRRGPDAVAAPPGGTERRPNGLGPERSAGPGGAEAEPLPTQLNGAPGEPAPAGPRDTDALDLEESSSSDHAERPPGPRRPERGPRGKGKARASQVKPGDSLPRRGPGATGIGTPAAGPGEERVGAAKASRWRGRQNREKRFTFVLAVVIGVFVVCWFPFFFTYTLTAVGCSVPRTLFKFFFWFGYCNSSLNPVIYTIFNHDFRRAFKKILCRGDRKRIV
T28 sequence (P29274 whole entry): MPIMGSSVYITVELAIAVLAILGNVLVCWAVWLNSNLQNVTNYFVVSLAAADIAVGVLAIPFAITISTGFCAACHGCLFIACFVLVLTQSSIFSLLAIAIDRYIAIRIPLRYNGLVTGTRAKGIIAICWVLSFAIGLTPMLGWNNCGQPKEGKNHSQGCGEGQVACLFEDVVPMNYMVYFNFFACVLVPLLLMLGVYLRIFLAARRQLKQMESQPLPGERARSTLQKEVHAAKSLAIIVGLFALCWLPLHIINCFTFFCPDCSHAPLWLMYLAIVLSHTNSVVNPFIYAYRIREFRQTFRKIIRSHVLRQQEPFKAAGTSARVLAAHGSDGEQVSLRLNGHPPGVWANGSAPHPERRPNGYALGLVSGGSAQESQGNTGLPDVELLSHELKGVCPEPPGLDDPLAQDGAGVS
T35 sequence (P46098 24-478): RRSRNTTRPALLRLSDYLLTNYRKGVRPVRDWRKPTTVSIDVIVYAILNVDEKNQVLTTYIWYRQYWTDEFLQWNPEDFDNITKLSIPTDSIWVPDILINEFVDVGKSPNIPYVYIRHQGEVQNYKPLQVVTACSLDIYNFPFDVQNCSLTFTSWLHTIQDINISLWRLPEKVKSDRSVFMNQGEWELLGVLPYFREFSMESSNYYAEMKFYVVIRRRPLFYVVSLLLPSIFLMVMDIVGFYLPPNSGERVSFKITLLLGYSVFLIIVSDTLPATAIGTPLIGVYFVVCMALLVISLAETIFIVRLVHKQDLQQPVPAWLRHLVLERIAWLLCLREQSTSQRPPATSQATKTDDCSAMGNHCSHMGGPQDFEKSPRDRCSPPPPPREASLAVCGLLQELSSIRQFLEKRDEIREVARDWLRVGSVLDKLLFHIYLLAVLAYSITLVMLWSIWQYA
T29 sequence (P25101 21-427): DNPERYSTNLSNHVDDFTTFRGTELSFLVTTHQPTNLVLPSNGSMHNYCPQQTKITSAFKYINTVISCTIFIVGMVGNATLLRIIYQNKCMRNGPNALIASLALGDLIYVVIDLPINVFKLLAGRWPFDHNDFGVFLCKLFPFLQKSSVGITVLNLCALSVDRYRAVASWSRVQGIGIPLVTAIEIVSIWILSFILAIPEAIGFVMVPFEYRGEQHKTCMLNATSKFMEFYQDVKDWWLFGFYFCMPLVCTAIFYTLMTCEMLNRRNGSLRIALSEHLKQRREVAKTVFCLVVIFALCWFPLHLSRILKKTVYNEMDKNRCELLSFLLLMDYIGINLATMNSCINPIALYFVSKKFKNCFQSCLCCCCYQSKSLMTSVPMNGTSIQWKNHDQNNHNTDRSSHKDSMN
T25 sequence (P25929 whole entry): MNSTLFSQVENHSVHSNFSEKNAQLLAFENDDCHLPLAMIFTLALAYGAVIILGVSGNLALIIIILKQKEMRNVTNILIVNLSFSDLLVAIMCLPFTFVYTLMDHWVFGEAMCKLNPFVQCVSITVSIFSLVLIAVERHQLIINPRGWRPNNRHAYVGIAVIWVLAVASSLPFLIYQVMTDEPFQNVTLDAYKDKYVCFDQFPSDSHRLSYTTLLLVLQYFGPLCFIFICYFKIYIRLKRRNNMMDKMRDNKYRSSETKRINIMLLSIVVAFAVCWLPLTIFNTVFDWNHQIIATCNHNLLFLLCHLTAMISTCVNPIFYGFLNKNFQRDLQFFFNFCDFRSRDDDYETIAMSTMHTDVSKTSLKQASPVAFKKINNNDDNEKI
T21 sequence (O14920 whole entry): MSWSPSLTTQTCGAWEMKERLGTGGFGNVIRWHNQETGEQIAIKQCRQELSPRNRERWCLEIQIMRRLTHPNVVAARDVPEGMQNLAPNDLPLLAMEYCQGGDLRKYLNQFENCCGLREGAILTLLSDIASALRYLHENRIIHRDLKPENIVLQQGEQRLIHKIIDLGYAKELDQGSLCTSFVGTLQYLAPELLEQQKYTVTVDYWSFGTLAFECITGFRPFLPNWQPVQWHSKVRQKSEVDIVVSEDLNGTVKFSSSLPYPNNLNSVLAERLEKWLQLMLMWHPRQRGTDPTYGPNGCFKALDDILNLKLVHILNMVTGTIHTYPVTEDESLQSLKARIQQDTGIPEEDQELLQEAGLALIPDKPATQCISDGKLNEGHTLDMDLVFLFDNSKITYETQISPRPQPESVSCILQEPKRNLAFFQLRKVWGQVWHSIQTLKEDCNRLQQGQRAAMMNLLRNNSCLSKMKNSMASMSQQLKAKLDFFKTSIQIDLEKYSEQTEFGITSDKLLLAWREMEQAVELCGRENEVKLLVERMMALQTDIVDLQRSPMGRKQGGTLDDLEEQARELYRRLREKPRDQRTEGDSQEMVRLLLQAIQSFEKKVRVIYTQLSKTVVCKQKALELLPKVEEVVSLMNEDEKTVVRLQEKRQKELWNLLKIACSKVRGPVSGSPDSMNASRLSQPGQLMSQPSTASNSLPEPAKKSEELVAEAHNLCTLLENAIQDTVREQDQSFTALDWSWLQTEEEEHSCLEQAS
T18 sequence (Q00536 whole entry): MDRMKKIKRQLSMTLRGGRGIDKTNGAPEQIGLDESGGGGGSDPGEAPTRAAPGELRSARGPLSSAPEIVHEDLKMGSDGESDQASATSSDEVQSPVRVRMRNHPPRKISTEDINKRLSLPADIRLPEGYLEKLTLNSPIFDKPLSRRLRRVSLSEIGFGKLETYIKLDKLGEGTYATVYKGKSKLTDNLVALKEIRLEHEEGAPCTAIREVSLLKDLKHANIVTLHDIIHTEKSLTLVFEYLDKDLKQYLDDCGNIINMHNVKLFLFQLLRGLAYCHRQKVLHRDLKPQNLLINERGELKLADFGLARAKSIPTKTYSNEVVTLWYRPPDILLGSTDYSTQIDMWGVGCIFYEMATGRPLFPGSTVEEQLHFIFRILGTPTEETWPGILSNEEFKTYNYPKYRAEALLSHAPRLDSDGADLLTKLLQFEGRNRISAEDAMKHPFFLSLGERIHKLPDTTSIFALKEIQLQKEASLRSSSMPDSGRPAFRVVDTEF

Compound: CNc1ccc(NCCc2ccccc2OC)cc1.Cl [KDS12025, N^1-(2-methoxyphenethyl)-N^4-methylbenzene-1,4-diamine hydrochloride salt]
- remaining binding at 10 µM (GSK3B): 95%
- remaining binding at 10 µM (ROCK2): 85%
- remaining binding at 10 µM (RET): 100%
- remaining binding at 10 µM (IKK-alpha): 100%
- remaining binding at 10 µM (CDK3): 79%
- remaining binding at 10 µM (VEGFR2): 100%
- remaining binding at 10 µM (SRC): 72%
- remaining binding at 10 µM (p38-alpha): 100%
- remaining binding at 10 µM (SRPK3): 91%
- remaining binding at 10 µM (PLK1): 100%
- remaining binding at 10 µM (DYRK1B): 67%
- remaining binding at 10 µM (PIK3CG): 100%
- remaining binding at 10 µM (CDK9): 83%
- remaining binding at 10 µM (SNARK): 100%
- remaining binding at 10 µM (INSR): 85%
- remaining binding at 10 µM (ACVR1B): 100%
- remaining binding at 10 µM (RIOK2): 98%
- remaining binding at 10 µM (PCTK1): 94%
- remaining binding at 10 µM (EPHA2): 89%
- remaining binding at 10 µM (PLK4): 77%
- remaining binding at 10 µM (IKK-beta): 100%
- remaining binding at 10 µM (PRKCE): 100%
- activity ([1]; mean): 84.6%
- activity [1]: 78.4% and 90.8%
- activity [2]: 107%
- activity [3]: 104%
- activity [4]: 91.8%
- activity ([5]; mean): 96%
- activity [5]: 101% and 91.1%
- activity [6]: 87.1%
- activity ([7]; mean): 90.7%
- activity [7]: 90.3% and 91.2%
- activity ([8]; 1.0E-06 M; read-out: % Inhibition of Control Specific Binding (1st, 2nd, Mean)): 108%
- activity ([8]; read-out: % Inhibition of Control Specific Binding (1st, 2nd, Mean); 1.0E-06 M): 90.8%
- activity [9]: 104%
- activity ([10]; mean): 75.8%
- activity [10]: 75.3% and 76.3%
- activity [11]: 104%
- activity ([12]; mean): 80%
- activity [12]: 81.7% and 78.4%
- activity ([13]; mean): 86.1%
- activity [13]: 86.9% and 85.4%
- activity [14]: 91.4% and 100%
